Read-outs that look alike come from different tables or passages of the source.
Legend:
[1] = biological target: wild type MLL1 five-member complex (MLL1-5C) (Homo sapiens, UniProt Q03164); experiment: MLL1 Flashplate Assay; format: biochemical; conditions: read-out: MLL1 flash plate
Protocol: MLL1 Flashplate Assay To assess the compound potency in MLL1 Flashplate assay, compounds were serially diluted 3-fold in DMSO to obtain a total of twelve concentrations. Then the test compounds at each concentration (250 nL of each) were transferred by Mosquito into Corning #3675 384-well plate. Solutions (15 μL) of 4.2 nM wild type MLL1 five-member complex (MLL1-5C) in the assay buffer (20 mM Tris-HCl, pH 8.0, 0.01% Tween 20, 1 mM DTT, 0.01% BSA) were added to the wells. A 10 μL solution of 2.5 μM of the peptide substrate H3K4me0 (histone H3[1-21]-Biotin) and 1.25 μM ^3H-SAM in the reaction buffer was then added to initiate each reaction. The final components in the reaction solution include 2.5 nM MLL1-5C, 0.5 μM ^3H-SAM, and 1 μM H3K4me0 with varying concentration of the compounds. A positive control consisted of 2.5 nM MLL1-5C, 0.5 μM ^3H-SAM, and 1 μM substrate in the absence of the test compound, and a negative control consisted of 0.5 μM ^3H-SAM, and 1 μM substrate only. Each reaction was incubated at rt for 90 min, then stopped by addition of 5 μL per of quench solution (0.5 mM SAM in assay buffer). 25 μL of each reaction solution was transferred to FlashPlate streptavidin 384-well microplate (PerkinElmer). After at least 1 h incubation at rt, the wells were washed three times with 0.1% Tween-20 in dH2O using the BioTek plate washer. The plates were then read in MicroBeta (PerkinElmer). The radioactive readouts were then normalized based on the values coming from the positive and negative controls to give percent enzyme activities. The data were then fit to a dose response equation using the program Helios to get the IC50 values of the test compounds.

[2] = test system: MV4-11 cells; experiment: MV4-11 6-Day Cell Growth CTG (CellTiter-Glo) Assay; format: cell-based; conditions: Homo sapiens, MV4-11, 144 h, MV4-11 cell growth CellTiter-Glo, 6 days
In short: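 MV4-11 AML cells (RPMI 1640, 10% FBS) seeded at 300 cells/well and exposed for 6 days at 37 °C to a 12-point, 1:3 compound series starting at 50 μM final. Viable cells read by CellTiter-Glo luminescence; percent inhibition versus DMSO-only wells fitted to dose-response curves for IC50.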

[3] = biological target: wild type MLL1 four-member complex (MLL1-4C) (Homo sapiens, UniProt Q03164); experiment: MLL1 LC-MS Assay; format: biochemical
In short: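 Compound pre-incubated 20 min with MLL1-4C and SAM, then H3[1-21]-biotin (H3K4me0) substrate added; final 30 nM enzyme, 2.5 μM SAM, 10 μM peptide in Tris pH 8.0 with MgCl2, DTT, Tween 20, BSA. After 120 min at rt, TFA-quenched SAH quantified by LC-MS/MS with d4-SAH; IC50 from dose-response fit.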

[4] = test system: H3K4me3 in MV4-11 cells; experiment: MV4-11 H3K4me3 Cellular ELISA Assay; format: cell-based; conditions: Homo sapiens, MV4-11, 48 h
In short: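 MV4-11 cells were treated for 48 h with 12-point 1:3 compound dilutions (from 10 mM stock), then histones were acid-extracted with 0.5M HCl and neutralized. H3K4me3 and total H3 were measured by HRP chemiluminescent ELISA, and inhibition versus DMSO after H3 normalization was curve-fitted for IC50.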

Row | SMILES | IC50 [1] [nM] | IC50 [2] [nM] | IC50 ([3]; read-out: MLL1 LCMS) [nM] | IC50 [4] [nM] | IC50 ([3]; read-out: LCMS) [nM]
1 | CCOC(=O)[C@@]1(N)CCN(c2cc(Cl)cc(Br)c2Cn2cnc3c(N)ncnc32)C1 [Example 170] | < 60 | < 2000 | 50 to 100 | < 1900 | –
2 | Nc1ncnc2c1ncn2Cc1c(N2CC[C@](N)(C(=O)NC3CC3)C2)ccc(F)c1CN1CCOCC1 [Example 65] | > 100 | < 2000 | – | < 1900 | < 50
3 | CCc1c(Cl)ccc(N2CC[C@](N)(C(=O)NCCS(=O)(=O)c3ccccc3)C2)c1Cn1cnc2c(N)ncnc21 [Example 145] | < 60 | < 2000 | < 50 | < 1900 | –
4 | Nc1ncnc2c1ncn2Cc1c(N2CC[C@](N)(C(=O)N3CCn4nncc4C3)C2)ccc(F)c1C(F)(F)F [Example 128] | > 100 | > 3000 | – | < 1900 | > 100
5 | Nc1ncnc2c1ncn2Cc1c(N2CC[C@](N)(C(=O)NC3CC3)C2)ccc2c1OC(F)(F)O2 [Example 15] | < 60 | < 2000 | – | < 1900 | < 50
6 | Nc1ncnc2c1ncn2Cc1c(N2CC[C@](N)(C(=O)N[C@H]3C[C@@H]3c3ccccc3)C2)ccc(F)c1CN1CCOCC1 [Example 51] | < 60 | < 2000 | – | < 1900 | < 50
7 | CCc1c(Cl)ccc(N2CC[C@](N)(C(=O)NCCS(=O)(=O)CC)C2)c1Cn1cnc2c(N)ncnc21 [Example 149] | < 60 | < 2000 | < 50 | < 1900 | –
8 | Nc1ncnc2c1ncn2Cc1c(CN2CCOCC2)c(F)cc(Cl)c1N1CC[C@](N)(C(=O)NC2CC2)C1 [Example 75] | > 100 | – | – | > 3000 | 50 to 100
9 | Nc1ncnc2c1ncn2Cc1c(N2CC[C@](N)(CCc3ccccn3)C2)ccc(F)c1C(F)(F)F [Example 28] | > 100 | – | – | > 3000 | > 100
10 | CC1(C)Cc2ccc(N3CC[C@](N)(C(=O)NC4CC4)C3)c(Cn3cnc4c(N)ncnc43)c2O1 [Example 114] | > 100 | – | – | > 3000 | > 100
11 | CN(C)Cc1c(F)cc(Cl)c(N2CC[C@](N)(C(=O)NC3CC3)C2)c1Cn1cnc2c(N)ncnc21 [Example 72, (R)-3-amino-1-(2-((6-amino-9H-purin-9-yl)methyl)-6-chloro-3-((dimethylamino)methyl)-4-fluorophenyl)-N-cyclopropylpyrrolidine-3-carboxamide] | > 100 | – | – | > 3000 | > 100
12 | Nc1ncnc2c1ncn2Cc1c(Br)cc2c(c1N1CCC(N)(C(=O)NC3CC3)C1)CCO2 (stereo not shown) [Example 115] | < 60 | – | – | > 3000 | 50 to 100
13 | CN(C)Cc1c(F)ccc(N2CC[C@](N)(C(=O)N[C@H]3C[C@@H]3c3ccccc3)C2)c1Cn1cnc2c(N)ncnc21 [Example 49] | – | < 2000 | – | < 1900 | < 50
14 | Nc1ncnc2c1ncn2Cc1c(N2CC[C@](N)(c3nnn[nH]3)C2)ccc(Cl)c1I [Example 156] | – | < 2000 | 50 to 100 | < 1900 | –
15 | CC1(C)CCN(Cc2c(F)ccc(N3CC[C@](N)(C(=O)NC4CC4)C3)c2Cn2cnc3c(N)ncnc32)C1 [Example 63] | – | < 2000 | – | < 1900 | > 100
16 | CCc1cc(Cl)cc(N2CC[C@](N)(c3nc[nH]n3)C2)c1Cn1cnc2c(N)ncnc21 [Example 25] | – | < 2000 | – | < 1900 | < 50
17 | CCc1c(Cl)ccc(N2CC[C@](N)(C(=O)NC3CC3)C2)c1Cn1cnc2c(N)ncnc21 [Example 165] | – | < 2000 | 50 to 100 | < 1900 | –
